{"source": "patent US8642074B2", "about": "“Thermosensitive liposomes containing therapeutic agents” (Celsion Corporation, priority 2007, dated 2014)", "key": {"[1]": {"assay": "In vivo drug distribution in heated and non-heated leg muscle, liposome vs free docetaxel (Example 2)", "design": "species or system BALB/c mice", "method": "Six female BALB/c mice (20±2 g) were randomly separated into 3 groups. The mice were anesthetized and put on a Styrofoam board with a hole in it. One leg of the mouse was pulled through the hole to other side of the board. The board was floated in a water bath to heat the leg at 43.5±0.5° C. for 15 min. The mice then received a tail vein injection of either liposomes at a dose of 10 mg/kg or the same dose of Taxotere (control: prepared according to the manufacturers specifications) The one leg from each mouse was then heated for 30 min. after injection and then sacrificed. Muscles from the heated and non-heated legs were excised. Drug was extracted from a fixed weight of muscle tissue using the extraction method described above. The extracted drug was analyzed by HPLC."}, "[2]": {"system": "Lewis lung carcinoma cells", "assay": "In vivo efficacy in mice bearing Lewis lung tumors with local heating", "design": "species or system Kunming mice", "details": "day 18, 75 mg/m^2 on days 8, 12, 16", "method": "Twelve female Kunming mice, between 7-9 weeks old and weighing 20±2 g were used. Lewis lung carcinoma cells (3×10^6 cells in 0.1 ml of PBS.) were implanted subcutaneously into the right lower leg of each mouse. Tumors were allowed to grow to 4-6 mm in diameter before starting treatment.\nThe 12 mice were stratified by tumor volume and randomized to 3 treatment groups: saline, free docetaxel and the thermosensitive liposomes of the invention.\nDocetaxel-containing thermosensitive liposomes of the invention were prepared as described above and stored at 2-8° C. until use. Treated animals were injected with 75 mg/m^2 docetaxel either in a thermosensitive liposome of the invention or as non-liposomal Taxotere prepared according to the manufacturer's specifications.\nThe treatment was started on day 8 after the tumor implantation and was repeated on day 12 and day 16. Mice in all treatment groups were anesthetized with an IP injection of pentobarbital (80 mg/kg); treatment was administered in a volume of 0.2 ml via tail vein injection. This dose of anesthesia provided adequate immobilization for the 1-h treatment period.\nExcept for the saline group, all treatment groups were given an equivalent dose of 75 mg/m^2 of docetaxel. Immediately after injection, the mice were positioned in specially designed holders that allowed the isolated leg tumor to be placed in a water bath for 30 minutes. The water bath temperature was set at 43° C. This water bath temperature has been calibrated previously to give tumor temperatures of 42° C. All the mice were sacrificed at day 18. The tumors were surgically excised and the tumor weights were recorded. The tumor growth inhibition was calculated as follows: Tumor Inhibition Ratio=(Vs−Vx)/Vs\nWhere: Vs is tumor volume of saline group, Vx is the tumor volume of treatment group."}}, "note": "“And” between values parts separate entries of the source, which are not always exact repeats. Equal values may be shown once.", "data": [{"compound": "CC(=O)O[C@@]12CO[C@@H]1C[C@H](O)[C@@]1(C)C(=O)[C@H](O)C3=C(C)[C@@H](OC(=O)[C@H](O)[C@@H](NC(=O)OC(C)(C)C)c4ccccc4)C[C@@](O)([C@@H](OC(=O)c4ccccc4)[C@H]21)C3(C)C", "note": "[Docetaxel, docetaxel]", "values": [{"measurement": "drug concentration in heated compared with non heated tissue", "setting": "[1]; Example 2, 10 mg/kg tail vein", "result": "the same"}, {"measurement": "Adrug/Aref % (heated leg)", "setting": "[1]; muscle, leg heated at 43.5±0.5° C., 10 mg/kg tail vein, HPLC, Groups 1-3, 10 mg/kg", "result": "5.46% and 6.53% and 5.48%"}, {"measurement": "Adrug/Aref % (non-heated leg)", "setting": "[1]; muscle, non-heated leg, 10 mg/kg tail vein, HPLC, Groups 1-3, 10 mg/kg", "result": "5.48% and 6.29% and 5.32%"}, {"measurement": "Tumor Weight Average", "setting": "[2]; group average, tumor heated 30 min, in g (unit assumed)", "result": 1.002}, {"measurement": "Tumor Weight", "setting": "[2]; individual mice, tumor heated 30 min at 42° C., listed as Docetaxel Injection, in g (unit assumed)", "result": "0.500 and 0.118 and 1.380 and 2.010"}, {"measurement": "Inhibition %", "setting": "[2]; vs saline group, tumor heated 30 min", "result": 77.91, "unit": "%"}]}]}
